RP-LC retention time data for 79 compounds are collected here from the METLIN SMRT retention time set (Domingo-Almenara et al. 2019).

This series in a line: gradient 5% acetonitrile 3 min, to 50% in 2 min, to 85% in 15 min, held 3 min, 100 µL/min. The note with it: column: Zorbax Extend-C18 2.1 x 50 mm; eluents: water / acetonitrile, 0.1% formic acid. The gist of the method:
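Using water and acetonitrile that each contained 0.1% formic acid, mixtures of ~100 pure standards were separated at 100 μL/min on a Zorbax Extend-C18 column (2.1 × 50 mm, 1.8 μm). The HPLC fed a quadrupole time-of-flight mass spectrometer working in positive and negative ionization mode, with dead and dwell volumes of 40 μL and 900 μL. Data were acquired over 3 months. Retention time was read from computationally picked adduct peaks after manual inspection of each.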
In turn, `CN(C)C(=O)c1csc(N2CCN(c3cccc(Cl)c3)CC2)n1` had an RP-LC retention time of 949 s.

In turn, `CCn1c(=O)sc2cc(S(=O)(=O)N3CCC(C(=O)Nc4ccccc4)CC3)ccc21` returned an RP-LC retention time of 878 s.

For the compound `CCOC(=O)c1cnc2nc(C)ccc2c1Nc1ccc(Cl)cc1F`, the RP-LC retention time came out at 758 s.

On to `Cc1cc(=O)n(CC(=O)Nc2ccc(F)cc2F)c(N2CCOCC2)n1`, for which the RP-LC retention time turned out to be 651 s.

Compound `O=C(NCc1ccccc1)C1CCN(c2ccc(SCc3ccccc3)nn2)CC1` displayed an RP-LC retention time of 761 s.

In the case of `Fc1ccc(Br)cc1-c1nc2ccc(Cl)cn2c1Nc1ccc2c(c1)OCO2`, the RP-LC retention time was 945 s.

Compound `Cc1ccc(CN2CC(c3nc(CCOCc4ccccc4)no3)C2)s1` came in with an RP-LC retention time of 716 s.

As for `CCSc1ccccc1C(=O)NCc1cc(-c2ccccc2)on1`, the RP-LC retention time turned out to be 864 s.

As for `COc1ccc(NC(=O)N2CCCC(Cn3cnc4cccnc43)C2)cc1OC` (centres undefined), the RP-LC retention time is 620 s.

On to `CCOc1ccc(-c2nc(Cc3noc(-c4ccccc4OC)n3)c(C)o2)cc1`, for which the RP-LC retention time was determined as 1170 s.

As to `Cc1ccc(NC(=O)c2c(O)c3cccnc3n(-c3ccc(F)cc3)c2=O)cc1F`, the RP-LC retention time amounted to 1340 s.

Regarding `Cc1noc(C)c1C1CCCN1C(=O)c1ccc2c(c1)OCO2` (centres undefined), the RP-LC retention time is 722 s.

`CCCCOc1ccc(-c2nc3ccc(Br)cc3c(C(=O)O)c2C)cc1` registered an RP-LC retention time of 963 s.

Regarding `Nc1c2ccccc2nc2ccccc12`, the RP-LC retention time is 637 s.

In turn, `CCc1noc(-c2cc(=O)n(CC(=O)Nc3ccccc3Cl)c3ccccc23)n1` came in with an RP-LC retention time of 987 s.

Regarding `O=C(NCCc1c[nH]c2ccccc12)c1noc2c1CCc1sccc1-2`, the RP-LC retention time was 1050 s.

Consider `CC1CN(c2ccc(Br)cc2)c2nc3c(c(=O)n(CC(=O)O)c(=O)n3C)n2C1` (centres undefined), for which the RP-LC retention time is 829 s.

As for `CCOc1cccc(CNC(=O)C2CCc3nc(N4CCCCC4)ncc3C2)c1` (centres undefined), the RP-LC retention time was 777 s.

Take `COc1ccc(-c2nc3cc(C)ccn3c2NC(=O)c2ccc(Cl)c([N+](=O)[O-])c2)cc1`: the RP-LC retention time was found to be 736 s.

Compound `CC(NC(=O)c1ccco1)c1nc2ccccc2n1CC(=O)N1CCCCC1` (centres undefined) registered an RP-LC retention time of 627 s.

Turning to `COc1ccc(NC(=O)N2C[C@@H]3C[C@H](NS(=O)(=O)c4ccccc4)[C@H]2C3)c(OC)c1`, the RP-LC retention time worked out at 745 s.

Turning to `COCCN1CC2(CCN(S(=O)(=O)c3c(C)cc(C)cc3C)CC2)C1c1ccccc1` (centres undefined), the RP-LC retention time came out at 808 s.

In turn, `CCc1ccccc1NC(=O)Cn1nc2n(c1=O)CCCC2` had an RP-LC retention time of 674 s.

The compound `Cc1cc(N2CCOCC2)n2nc(CN3CCC(Cc4ccccc4)CC3)nc2n1` came in with an RP-LC retention time of 641 s.

Compound `CCn1c(=O)c(C(=O)NCc2ccccc2F)nc2cccnc21` came in with an RP-LC retention time of 824 s.

The compound `COc1ccc(-c2nc3ccc(C)cn3c2Nc2ccc3c(c2)OCO3)cc1` returned an RP-LC retention time of 684 s.

In turn, `CN1c2ccc(F)cc2C(=O)NC12CCN(C(=O)c1ccccc1F)CC2` had an RP-LC retention time of 745 s.

As to `Cc1ccc(-c2nc3ccc(Br)cn3c2Nc2ccccc2C)cc1`, the RP-LC retention time turned out to be 892 s.

Consider `COc1cc(=O)n2c(c1C(=O)Nc1cccc3c1CCCC3)CCCC2`, for which the RP-LC retention time is 762 s.

Take `Cc1csc(-c2cc(S(=O)(=O)NCc3ccccc3Cl)c(C)s2)n1`: the RP-LC retention time was 1050 s.

As for `CCn1c(=O)c(C)nc2cc(-c3noc(-c4cccc(C)c4)n3)ccc21`, the RP-LC retention time is 1190 s.

For the compound `O=C(Cc1ccc(Cl)cc1)Nc1nc(-c2ccccc2)cs1`, the RP-LC retention time amounted to 1020 s.

`O=C(NCc1cccnc1)C1CCc2sc(C(=O)N3CCOCC3)cc2C1` (centres undefined) had an RP-LC retention time of 526 s.

`O=C(NCc1ccc(N2CCCCC2)cc1)c1cccc2c1CCN2C(=O)C1CC1` gave an RP-LC retention time of 634 s.

As for `COc1cccc(-c2noc(C3CC(=O)N(c4ccc(Cl)cc4)C3)n2)c1OC` (centres undefined), the RP-LC retention time is 963 s.

In the case of `CN1CCc2nc(C(=O)N[C@@H]3C[C@@H](C(=O)N(C)C)CC[C@@H]3NC(=O)C(=O)Nc3ccc(Cl)cn3)sc2C1`, the RP-LC retention time stood at 652 s.

In turn, `Cc1ccc(NC(=O)C2CCN(S(=O)(=O)c3cc(-c4noc(C5CCC5)n4)cs3)CC2)cc1` gave an RP-LC retention time of 1020 s.

In turn, `Cc1cc(=O)c2c(=O)[nH][nH]c2[nH]1` returned an RP-LC retention time of 567 s.

As for `C=CCn1c(C)c(CC(=O)Nc2ccc(C)cc2)c(=O)n2nc(-c3ccc(C)cc3)nc12`, the RP-LC retention time stood at 991 s.

`Cc1ccc2nc3sc(C(=O)Nc4cccc(C(F)(F)F)c4)cc3c(=O)n2c1` displayed an RP-LC retention time of 980 s.

`Cn1nc(-c2nnc(-c3ccccc3)o2)c2c1CCN(S(=O)(=O)c1cccc3nsnc13)C2` registered an RP-LC retention time of 905 s.

With `COc1cccc(CNc2nc3ccncc3n(C(C)C)c2=O)c1OC`, the RP-LC retention time was determined as 644 s.

`O=C(C1CCC1)N1CCc2sc(S(=O)(=O)NCc3ccccc3Cl)cc2C1` displayed an RP-LC retention time of 923 s.

`CCn1c(CCNC(=O)c2ccc(OC)c(F)c2)nc2cccnc21` gave an RP-LC retention time of 622 s.

As to `COC(=O)c1ccccc1NC(=O)NCCn1c(C)nc2ccccc21`, the RP-LC retention time worked out at 630 s.

`COc1ccccc1N1CCN(c2cc(SCC(=O)NCCCc3ccccc3)ncn2)CC1` showed an RP-LC retention time of 959 s.

In turn, `CCOc1ccc(NC(=O)N2CCN(Cc3nc4ccccc4o3)CC2)cc1` showed an RP-LC retention time of 681 s.

For the compound `O=C(NCCc1csc(-c2cccs2)n1)C1CCN(S(=O)(=O)c2cccs2)CC1`, the RP-LC retention time amounted to 852 s.

Compound `COc1ccc(C)cc1NC(=O)Cn1nc2cc(C)nc(Nc3ccc(C)cc3)n2c1=O` had an RP-LC retention time of 1150 s.

The compound `COc1ccc(NC(=O)NCCc2nc3cccnc3n2C2CCCC2)c(OC)c1` gave an RP-LC retention time of 708 s.

The compound `Cc1nn(-c2nc(-c3ccc(Cl)cc3)cs2)c(C)c1CC(=O)N1CCOCC1` came in with an RP-LC retention time of 1030 s.

Compound `O=c1c2nc(-c3ccc(F)cc3)cn2ccn1-c1cccc(Cl)c1` gave an RP-LC retention time of 867 s.

Compound `Cc1cccc(-c2noc(Cn3ccn(-c4cc(C)cc(C)c4)c(=O)c3=O)n2)c1` registered an RP-LC retention time of 925 s.

The compound `CCOc1cccc(C2c3[nH]c4ccccc4c3CCN2C(=O)C2CCC2)c1` (centres undefined) displayed an RP-LC retention time of 1200 s.

Turning to `Cc1cccc(NC(=O)NCCn2c(C(F)(F)F)nc3cccnc32)c1`, the RP-LC retention time was 761 s.

Take `CN1CCC2(CC1)CN(C(=O)C1CCC1)Cc1ccccc1O2`: the RP-LC retention time came to 619 s.

Regarding `CCN1c2cc(F)ccc2C(=O)NC12CCN(C(=O)c1cc(OC)cc(OC)c1)CC2`, the RP-LC retention time was found to be 813 s.

As for `Cc1ccc(Nc2c(-c3cccc(O)c3)nc3cnccn23)c(Br)c1`, the RP-LC retention time was determined as 843 s.

The compound `O=C(c1ccc(F)cc1)N(CC1CCOC1)C1CC1` (centres undefined) showed an RP-LC retention time of 747 s.

Consider `CN(C)c1ccc(/C=C2\CCc3ccccc3C2=O)cc1Br`, for which the RP-LC retention time turned out to be 1260 s.

The compound `CCN1C(=O)COc2ccc(-c3noc(C4CC(=O)N(c5ccc(C)c(C)c5)C4)n3)cc21` (centres undefined) returned an RP-LC retention time of 992 s.

With `CC(C)CC(NC(=O)C1CCC(C)CC1)C(=O)N1CCN(c2ccccn2)CC1` (centres undefined), the RP-LC retention time turned out to be 693 s.

As for `Cc1nn(-c2ccc(Cl)cc2)c2nc(N3CCCC(C(=O)NCc4cccc(F)c4)C3)sc12` (centres undefined), the RP-LC retention time stood at 1240 s.

`O=C([C@@H]1C[C@H](F)CN1C(=O)Nc1ccccc1)N1CCCCC1` registered an RP-LC retention time of 653 s.

With `CCn1c(=O)n(CC)c2cc(S(=O)(=O)c3ccccc3)c(NC(=O)C3CC3)cc21`, the RP-LC retention time is 816 s.

On to `O=C(Cc1cccs1)N1CCC(COc2ccc(C(=O)N3CCOCC3)cc2)CC1`, for which the RP-LC retention time came out at 734 s.

On to `CCc1nnc2c(=O)n(CC(=O)NCc3cccc(F)c3)c3cccnc3n12`, for which the RP-LC retention time is 710 s.

As for `O=c1cc(N2CCOCC2)c(-c2ccccc2)n[nH]1`, the RP-LC retention time amounted to 623 s.

The compound `O=C(Nc1nccs1)C1CCN(S(=O)(=O)C2CC2)CC1` registered an RP-LC retention time of 632 s.

Compound `Cn1ncc2c3ccccc3n(CCCC(=O)N3CCN(c4ccccn4)CC3)c2c1=O` displayed an RP-LC retention time of 607 s.

`O=c1ccn(-c2cccc(F)c2)nc1-c1nc(-c2ccc(F)cc2)no1`: the RP-LC retention time was 902 s.

In the case of `O=C(NCc1ccccc1F)C1CCN(c2cnc3nccnc3c2)CC1`, the RP-LC retention time was 689 s.

Consider `CCc1noc([C@@H]2CC(F)(F)CN2C(=O)c2cnc[nH]2)n1`, for which the RP-LC retention time was found to be 604 s.

Take `O=C(Nc1nnc(SCc2nnc(-c3ccccc3)o2)s1)c1ccc(Br)o1`: the RP-LC retention time turned out to be 870 s.

Take `COc1ccc(C(=O)N2CCC(COc3ccc(C(=O)NC4CC4)cc3)CC2)c(C)c1`: the RP-LC retention time is 808 s.

The compound `Cc1cnc(C2CC2)n1C1CCN(S(=O)(=O)c2cccc(F)c2)C1` (centres undefined) came in with an RP-LC retention time of 654 s.

Compound `CCCS(=O)(=O)c1nc2ccc(NS(=O)(=O)c3ccc(F)cc3Cl)cc2s1` gave an RP-LC retention time of 973 s.

Regarding `Cc1ncc2c(n1)C[C@@H]1CC[C@H]2N1C(=O)Nc1ccc(C)c(F)c1`, the RP-LC retention time amounted to 728 s.

For the compound `CCS(=O)(=O)NCc1ccc2c(c1)CCN2C(=O)CC(C)C`, the RP-LC retention time stood at 794 s.
